Results taken from ChEMBL document CHEMBL3885881, “DrugMatrix”.

Organism: Rattus norvegicus
Experiment: DrugMatrix - Regimen: Daily Repeat
Assay type: toxicity, organism-based, Sprague-Dawley
Parameters: regimen Daily Repeat, gender Male, age 6-8 weeks
Details: in vivo, po, 3 mg/kg, route oral GAVAGE, dose level Low, vehicle 100 % WATER; for ABSOLUTE BASOPHIL / ABSOLUTE EOSINOPHIL / ABSOLUTE LYMPHOCYTE / ABSOLUTE MONOCYTE / ABSOLUTE SEGMENTED NEUTROPHIL / BASOPHIL / EOSINOPHIL / ERYTHROCYTE COUNT / HEMATOCRIT / HEMOGLOBIN / LEUKOCYTE COUNT / LYMPHOCYTE / MEAN CORPUSCULAR HEMOGLOBIN / MEAN CORPUSCULAR HEMOGLOBIN CONCENTRATION / MONOCYTE / NEUTROPHIL / NUCLEATED RED BLOOD CELLS / PLATELET COUNT: tissue Blood; for ALANINE AMINOTRANSFERASE / ALBUMIN / ALKALINE PHOSPHATASE / ASPARTATE AMINOTRANSFERASE / BLOOD UREA NITROGEN / CARBON DIOXIDE / CHLORIDE / CHOLESTEROL / CREATINE PHOSPHOKINASE / CREATININE / GLUCOSE / LACTATE DEHYDROGENASE / LIPASE / PHOSPHORUS / SODIUM / TOTAL BILIRUBIN / TOTAL PROTEIN / URIC ACID: tissue Plasma

## COc1cc2nc(N3CCN(C(=O)C4CCCO4)CC3)nc(N)c2cc1OC (configuration not stated) [TERAZOSIN]
72 h, time 3 day
  ABSOLUTE BASOPHIL: 0 CELLS/uL
  ABSOLUTE EOSINOPHIL: 53.33 CELLS/uL
  ABSOLUTE LYMPHOCYTE: 7633 CELLS/uL
  ABSOLUTE MONOCYTE: 36.67 CELLS/uL
  ABSOLUTE SEGMENTED NEUTROPHIL: 977 CELLS/uL
  BASOPHIL: 0%
  EOSINOPHIL: 0.67%
  ERYTHROCYTE COUNT: 4.99 x10E6/uL
  HEMATOCRIT: 32.2%
  HEMOGLOBIN: 12.87 G/DL
  LEUKOCYTE COUNT: 8.7 x10E3/uL
  LYMPHOCYTE: 88%
  MEAN CORPUSCULAR HEMOGLOBIN: 25.87 pg
  MEAN CORPUSCULAR HEMOGLOBIN CONCENTRATION: 40 G/DL
  MONOCYTE: 0.33%
  NEUTROPHIL: 11%
  NUCLEATED RED BLOOD CELLS: 0 /100WBC
  PLATELET COUNT: 1053.33 x10E3/uL
  ALANINE AMINOTRANSFERASE: 63.67 u/L
  ALBUMIN: 4.27 G/DL
  ALKALINE PHOSPHATASE: 367.67 u/L
  ASPARTATE AMINOTRANSFERASE: 102.33 u/L
  BLOOD UREA NITROGEN: 16.67 mg/dL
  CARBON DIOXIDE: 32.67 mmol/L
  CHLORIDE: 103.33 MEQ/L
  CHOLESTEROL: 74 mg/dL
  CREATINE PHOSPHOKINASE: 321.67 u/L
  CREATININE: 0.24 mg/dL
  GLUCOSE: 155 mg/dL
  LACTATE DEHYDROGENASE: 197.67 u/L
  LIPASE: 8.33 u/L
  PHOSPHORUS: 12.7 mg/dL
  SODIUM: 145.9 MEQ/L
  TOTAL BILIRUBIN: 0.13 mg/dL
  TOTAL PROTEIN: 5.97 G/DL
  URIC ACID: 1.27 mg/dL
120 h, time 5 day
  ABSOLUTE BASOPHIL: 0 CELLS/uL
  ABSOLUTE EOSINOPHIL: 0 CELLS/uL
  ABSOLUTE LYMPHOCYTE: 9705.67 CELLS/uL
  ABSOLUTE MONOCYTE: 145.67 CELLS/uL
  ABSOLUTE SEGMENTED NEUTROPHIL: 882 CELLS/uL
  BASOPHIL: 0%
  EOSINOPHIL: 0%
  ERYTHROCYTE COUNT: 5.4 x10E6/uL
  HEMATOCRIT: 35.9%
  HEMOGLOBIN: 13.87 G/DL
  LEUKOCYTE COUNT: 10.73 x10E3/uL
  LYMPHOCYTE: 90.33%
  MEAN CORPUSCULAR HEMOGLOBIN: 25.7 pg
  MEAN CORPUSCULAR HEMOGLOBIN CONCENTRATION: 38.67 G/DL
  MONOCYTE: 1.33%
  NEUTROPHIL: 8.33%
  NUCLEATED RED BLOOD CELLS: 0 /100WBC
  PLATELET COUNT: 1076.33 x10E3/uL
  ALANINE AMINOTRANSFERASE: 56.67 u/L
  ALBUMIN: 4.27 G/DL
  ALKALINE PHOSPHATASE: 361.33 u/L
  ASPARTATE AMINOTRANSFERASE: 85.33 u/L
  BLOOD UREA NITROGEN: 20.67 mg/dL
  CARBON DIOXIDE: 30 mmol/L
  CHLORIDE: 102.67 MEQ/L
  CHOLESTEROL: 75.33 mg/dL
  CREATINE PHOSPHOKINASE: 197.33 u/L
  CREATININE: 0.24 mg/dL
  GLUCOSE: 172 mg/dL
  LACTATE DEHYDROGENASE: 141.67 u/L
  LIPASE: 11.33 u/L
  PHOSPHORUS: 13.7 mg/dL
  SODIUM: 146.17 MEQ/L
  TOTAL BILIRUBIN: 0.2 mg/dL
  TOTAL PROTEIN: 5.9 G/DL
  URIC ACID: 1.7 mg/dL
